Molecular target: T1, 11β-HSD 1 (Homo sapiens, UniProt P28845)
T1 construct: detecting cortisol generated from cortisterone by human liver microsomes; from tissue; host or cells: human liver microsomes
Experiment: In vitro inhibition of 11β-HSD 1, HTRF detection of cortisol generated by human liver microsomes
Format: biochemical
Conditions: 1 μM test compound, 100% indicates no inhibition, zero or below zero indicates complete inhibition (relative to carbenoxolone)
Protocol: Briefly, compounds were incubated for 1 hour at 37° C. in Tris buffer (20 mM tris, 5 mM EDTA, pH 6.0) containing NADPH (200 μM) and cortisone (80 nM). Cortisol generated in the reaction is then detected with a competitive immunoassay, involving two HTRF conjugates: cortisol linked to XL665 and anti-cortisol antibody labeled with Europium cryptate. The incubation period for detection reaction was typically 2 hours. The amount of cortisol is determined by reading the time-resolved fluorescence of the wells (Ex 320/75 nm; Em 615/8.5 nm and 665/7.5 nm). The ratio of the two emission signals is then calculated (Em665*10000/Em615). […] Each assay also contained a calibration curve with cortisol to transform the fluorescent data into cortisol concentrations. Percent inhibition of each compound was determined relative to the carbenoxolone signal. In Table 2 the 11β-HSD 1 inhibitory activities at 1 μM concentration of test compound, determined as described above, of the compounds listed in Table 3 are compiled, wherein 100% indicates no inhibition and a value of zero or below zero indicates complete inhibition.

T1 sequence (P28845 whole entry): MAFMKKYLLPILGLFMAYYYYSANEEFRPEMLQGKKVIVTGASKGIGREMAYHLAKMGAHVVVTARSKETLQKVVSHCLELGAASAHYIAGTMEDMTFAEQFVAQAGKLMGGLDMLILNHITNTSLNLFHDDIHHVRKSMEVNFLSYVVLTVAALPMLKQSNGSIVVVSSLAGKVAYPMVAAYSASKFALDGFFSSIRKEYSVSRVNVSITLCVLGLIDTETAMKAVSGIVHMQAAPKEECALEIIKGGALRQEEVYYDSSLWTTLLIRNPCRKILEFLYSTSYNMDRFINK

SMILES	Inhibitory activity on 11β-HSD 1, % CTL [% CTL]	Inhibitory activity on 11β-HSD 1, % CTL (1 µM) [% CTL]
O=C(c1ccc2[nH]cnc2c1)N1[C@@H]2CC[C@H]1C[C@@H](c1ccc(F)cc1)C2 [Example 1, endo-(1H-Benzoimidazol-5-yl)-[3-(4-fluoro-phenyl)-8-aza-bicyclo[3.2.1]oct-8-yl]-methanone]	−18	
NC(=O)c1ccc(C(=O)N2[C@@H]3CC[C@H]2C[C@@H](c2ccc(F)cc2)C3)cc1 [Example 2, endo-4-[3-(4-Fluoro-phenyl)-8-aza-bicyclo[3.2.1]octane-8-carbonyl]-benzamide]		−27
O=C(c1ccc2c(c1)OCCO2)N1[C@@H]2CC[C@H]1C[C@@H](c1ccc(F)cc1)C2 [Example 3, endo-(2,3-Dihydro-benzo[1,4]dioxin-6-yl)-[3-(4-fluoro-phenyl)-8-aza-bicyclo[3.2.1]oct-8-yl]-methanone]	−32	
Cc1cc(C(F)F)n2ncc(C(=O)N3[C@@H]4CC[C@H]3C[C@@H](c3ccc(F)cc3)C4)c2n1 [Example 4, endo-(7-Difluoromethyl-5-methyl-pyrazolo[1,5-a]pyrimidin-3-yl)-[3-(4-fluoro-phenyl)-8-aza-bicyclo[3.2.1]oct-8-yl]-methanone]	87	
O=C(c1n[nH]c2c1CCC2)N1[C@@H]2CC[C@H]1C[C@@H](c1ccc(F)cc1)C2 [Example 6, endo-[3-(4-Fluoro-phenyl)-8-aza-bicyclo[3.2.1]oct-8-yl]-(1,4,5,6-tetrahydro-cyclopentapyrazol-3-yl)-methanone]	88	
O=C(c1cccs1)N1[C@@H]2CC[C@H]1C[C@@H](c1ccc(F)cc1)C2 [Example 7, endo-[3-(4-Fluoro-phenyl)-8-aza-bicyclo[3.2.1]oct-8-yl]-thiophen-2-yl-methanone]	68	
Cc1cc(=O)n2ncc(C(=O)N3[C@@H]4CC[C@H]3C[C@@H](c3ccc(F)cc3)C4)c2[nH]1 [Example 8, endo-3-[3-(4-Fluoro-phenyl)-8-aza-bicyclo[3.2.1]octane-8-carbonyl]-5-methyl-4H-pyrazolo[1,5-a]pyrimidin-7-one]	87	
COC(=O)c1ccc(C(=O)N2[C@@H]3CC[C@H]2C[C@@H](c2ccc(C)cc2)C3)s1 [Example 9, endo-5-(3-p-Tolyl-8-aza-bicyclo[3.2.1]octane-8-carbonyl)-thiophene-2-carboxylic acid methyl ester]	87	
CC(C)(C)c1cc(C(=O)N2[C@@H]3CC[C@H]2C[C@@H](c2ccc(F)cc2)C3)[nH]n1 [Example 11, endo-(5-tert-Butyl-2H-pyrazol-3-yl)-[3-(4-fluoro-phenyl)-8-aza-bicyclo[3.2.1]oct-8-yl]-methanone]	82	
O=C(c1cc(F)cc(F)c1)N1[C@@H]2CC[C@H]1C[C@@H](c1ccc(F)cc1)C2 [Example 12, endo-(3,5-Difluoro-phenyl)-[3-(4-fluoro-phenyl)-8-aza-bicyclo[3.2.1]oct-8-yl]-methanone]	85	
Cc1ccc([C@H]2C[C@H]3CC[C@@H](C2)N3C(=O)c2cscn2)cc1 [Example 13, endo-Thiazol-4-yl-(3-p-tolyl-8-aza-bicyclo[3.2.1]oct-8-yl)-methanone]	62	
Cc1ccc([C@H]2C[C@H]3CC[C@@H](C2)N3C(=O)c2cccs2)cc1 [Example 15, endo-Thiophen-2-yl-(3-p-tolyl-8-aza-bicyclo[3.2.1]oct-8-yl)-methanone]	56	
Cc1ccc([C@H]2C[C@H]3CC[C@@H](C2)N3C(=O)c2ccco2)cc1 [Example 17, endo-Furan-2-yl-(3-p-tolyl-8-aza-bicyclo[3.2.1]oct-8-yl)-methanone]	93	
O=C(c1ccccn1)N1[C@@H]2CC[C@H]1C[C@@H](c1ccc(F)cc1)C2 [Example 18, endo-[3-(4-Fluoro-phenyl)-8-aza-bicyclo[3.2.1]oct-8-yl]-pyridin-2-yl-methanone]		97
CS(=O)(=O)N1CCc2cc(C(=O)N3[C@@H]4CC[C@H]3C[C@@H](c3ccc(F)cc3)C4)ccc21 [Example 20, endo-[3-(4-Fluoro-phenyl)-8-aza-bicyclo[3.2.1]oct-8-yl]-(1-methanesulfonyl-2,3-dihydro-1H-indol-5-yl)-methanone]	87	
O=C(c1n[nH]c2c1CCCC2)N1[C@@H]2CC[C@H]1C[C@@H](c1ccc(F)cc1)C2 [Example 23, endo-[3-(4-Fluoro-phenyl)-8-aza-bicyclo[3.2.1]oct-8-yl]-(4,5,6,7-tetrahydro-1H-indazol-3-yl)-methanone]	83	

SMILES	Inhibitory activity on 11β-HSD 1, % CTL [% CTL]	Inhibitory activity on 11β-HSD 1, % CTL (1 µM) [% CTL]
CC(C)CN1Cc2cccc(C(=O)N3[C@@H]4CC[C@H]3C[C@@H](c3ccc(F)cc3)C4)c2C1=O [Example 29, endo-7-[3-(4-Fluoro-phenyl)-8-aza-bicyclo[3.2.1]octane-8-carbonyl]-2-isobutyl-2,3-dihydro-isoindol-1-one]	97	
O=C(c1nsc(Cl)c1Cl)N1[C@@H]2CC[C@H]1C[C@@H](c1ccc(F)cc1)C2 [Example 30, endo-(4,5-Dichloro-isothiazol-3-yl)-[3-(4-fluoro-phenyl)-8-aza-bicyclo[3.2.1]oct-8-yl]-methanone]	88	
O=C(c1ccc(OC2CSC2)cc1)N1[C@@H]2CC[C@H]1C[C@@H](c1ccc(F)cc1)C2 [Example 31, endo-[3-(4-Fluoro-phenyl)-8-aza-bicyclo[3.2.1]oct-8-yl]-[4-(thietan-3-yloxy)-phenyl]-methanone]	86	
Cc1ccc([C@H]2C[C@H]3CC[C@@H](C2)N3C(=O)c2ccc(OC3CSC3)cc2)cc1 [Example 32, endo-[4-(Thietan-3-yloxy)-phenyl]-(3-p-tolyl-8-aza-bicyclo[3.2.1]oct-8-yl)-methanone]	94	
O=C(c1nccc2ccccc12)N1[C@@H]2CC[C@H]1C[C@@H](c1ccc(F)cc1)C2 [Example 33, endo-[3-(4-Fluoro-phenyl)-8-aza-bicyclo[3.2.1]oct-8-yl]-isoquinolin-1-yl-methanone]	88	
O=C(c1ccco1)N1[C@@H]2CC[C@H]1C[C@@H](c1ccc(F)cc1)C2 [Example 34, endo-[3-(4-Fluoro-phenyl)-8-aza-bicyclo[3.2.1]oct-8-yl]-furan-2-yl-methanone]	75	
O=C(c1cnn2cccnc12)N1[C@@H]2CC[C@H]1C[C@@H](c1ccc(F)cc1)C2 [Example 35, endo-[3-(4-Fluoro-phenyl)-8-aza-bicyclo[3.2.1]oct-8-yl]-pyrazolo[1,5-a]pyrimidin-3-yl-methanone]	62	
NC(=O)c1ccc(C(=O)N2[C@@H]3CC[C@H]2C[C@@H](c2ccc(F)cc2)C3)c(F)c1 [Example 36, endo-3-Fluoro-4-[3-(4-fluoro-phenyl)-8-aza-bicyclo[3.2.1]octane-8-carbonyl]-benzamide]	−28	
O=C(c1cccc2ncccc12)N1[C@@H]2CC[C@H]1C[C@@H](c1ccc(F)cc1)C2 [Example 37, endo-[3-(4-Fluoro-phenyl)-8-aza-bicyclo[3.2.1]oct-8-yl]-quinolin-5-yl-methanone]	39	
CCn1ncc(C(=O)N2[C@@H]3CC[C@H]2C[C@@H](c2ccc(C)cc2)C3)c1C [Example 38, endo-(1-Ethyl-5-methyl-1H-pyrazol-4-yl)-(3-p-tolyl-8-aza-bicyclo[3.2.1]oct-8-yl)-methanone]	12	
Cn1c(=O)n(C)c2cc(C(=O)N3[C@@H]4CC[C@H]3C[C@@H](c3ccc(F)cc3)C4)ccc21 [Example 39, endo-5-[3-(4-Fluoro-phenyl)-8-aza-bicyclo[3.2.1]octane-8-carbonyl]-1,3-dimethyl-1,3-dihydro-benzoimidazol-2-one]	43	
O=C(c1cccc(N2CCCCS2(=O)=O)c1)N1C2CCC1CC(c1ccc(F)cc1)C2 (stereo not drawn) [Example 40, endo-[3-(1,1-Dioxo-1lambda*6*-[1,2]thiazinan-2-yl)-phenyl-[3-(4-fluoro-phenyl)-8-aza-bicyclo[3.2.1]oct-8-yl]-methanone]	98	
Cc1cc(C(F)(F)F)n2nc(C(=O)N3[C@@H]4CC[C@H]3C[C@@H](c3ccc(F)cc3)C4)cc2n1 [Example 42, endo-[3-(4-Fluoro-phenyl)-8-aza-bicyclo[3.2.1]oct-8-yl]-(5-methyl-7-trifluoromethyl-pyrazolo[1,5-a]pyrimidin-2-yl)-methanone]	93	
O=C(c1cscn1)N1[C@@H]2CC[C@H]1C[C@@H](c1ccc(F)cc1)C2 [Example 43, endo-[3-(4-Fluoro-phenyl)-8-aza-bicyclo[3.2.1]oct-8-yl]-thiazol-4-yl-methanone]	95	
COc1cc(C(=O)N2[C@@H]3CC[C@H]2C[C@@H](c2ccc(F)cc2)C3)cc(OC)c1OC [Example 44, endo-[3-(4-Fluoro-phenyl)-8-aza-bicyclo[3.2.1]oct-8-yl]-(3,4,5-trimethoxy-phenyl)-methanone]	57	

Source: patent publication US8609690B2, “Aryl- and heteroarylcarbonyl derivatives of substituted nortropanes, medicaments containing such compounds and their use” (Boehringer Ingelheim International GmbH, priority 2008, dated 2013)
